Assay results taken from publication PMC9399588, “Effect of fluconazole on the pharmacokinetics of a single dose of fedratinib in healthy adults” (Cancer Chemotherapy and Pharmacology, 2022).
Several values for one entry are separate records, joined by “and”; a condition that tells them apart may be missing. Equal entries are not always repeated. Where two headings read alike, the source gives them in different places.

Tests used:
[1] = design: method as in PMID 34019108; conditions: healthy adults; cited from earlier work
CYP2C19 (liver) = test system: CYP2C19 (liver); design: method as in PMID 32886148; conditions: after first dose of 400 mg once-daily fedratinib, healthy participants; cited from earlier work
[2] = cited from earlier work
[3] = design: method as in PMID 32886148; conditions: PBPK simulations; cited from earlier work
[4] = Phase 1 fixed-sequence drug-drug interaction study: plasma pharmacokinetics of single-dose fedratinib with and without fluconazole; assay type: in vivo, human; conditions: for Vd/F: read-out: Vz/F, geometric mean (geometric CV%); for half-life: read-out: t1/2 (terminal elimination), geometric mean (geometric CV%) (converted)
Excerpt: This was an open-label Phase 1 study to evaluate the effect of multiple doses of fluconazole on the PK, safety, and tolerability of a single dose of fedratinib in healthy adult participants (NCT04702464). Healthy men and women aged 18–65 years with body mass index (BMI) ≥ 18 and ≤ 33 kg/m^2 at screening were enrolled at one site in the USA. Participants were confirmed to be healthy based on medical history, physical examination, clinical laboratory test results, vital signs, and 12-lead electrocardiogram (ECG) at screening and check-in (day − 1). Aspartate aminotransferase, alanine aminotransferase, and total bilirubin must have been at or below the upper limit of the reference range on or before check-in (day − 1). Other clinical parameters and laboratory results were either within normal range or deemed not clinically significant by the investigator. Women of childbearing potential were required to have a negative pregnancy test result and to use birth control.
This was a non-randomized, fixed-sequence, open-label study consisting of a screening phase, treatment phase (including baseline), and follow-up telephone call (Fig. 1). The fixed-sequence crossover design of this study was selected to remove intersubject variability from comparison between treatments. Healthy participants were chosen to mitigate the potential confounding effects of disease state or other concomitant medications likely to be present in a population of patients with myelofibrosis.
Participants resided at the clinical site from day − 1 to day 27. A single oral dose of fedratinib 100 mg was administered under fasted conditions on day 1. Participants received fluconazole 400 mg on day 10 and fluconazole 200 mg once daily on days 11–23. On day 18, participants received a single oral dose of fedratinib 100 mg, under fasted conditions, with fluconazole 200 mg. No food or beverages (except water) were allowed for at least 4 h after dosing; water was allowed as desired except for 1 h before and 1 h after each dose. Participants received ondansetron 8 mg by mouth approximately 1 h before each fedratinib administration to reduce the potential for fedratinib-related nausea and vomiting, with the option of a subsequent oral dose(s) of ondansetron as necessary. Fluconazole is not expected to have a clinically meaningful impact on the PK of ondansetron as ondansetron is metabolized by multiple enzymes including CYP1A1/2, CYP3A4, and CYP2D6 [28]. […] Participants were discharged from the clinical site on day 27 and received a follow-up telephone call 4 days (± 2 days) after discharge. In the event that participants discontinued the study for any reason, an early termination (ET) visit was performed. Only safety assessments scheduled for the day of discharge were performed at the ET visit. Participants who discontinued the study also received a follow-up telephone call 4 days (± 2 days) after discharge. Participants who discontinued the study due to inclement weather returned to the clinic to complete the ET visit at a later date.
On days 1 and 18, blood samples for determination of fedratinib plasma concentrations were collected before each dose and 0.5, 1, 1.5, 2, 3, 4, 6, 8, 12, 24, 48, 72, 120, 168, and 216 h post-dose. Plasma fedratinib concentrations were measured using a validated liquid chromatography–tandem mass spectrometry assay with a lower limit of quantification (LLOQ) of 1.00 ng/mL [19].
Plasma PK parameters were calculated using noncompartmental methods. The PK parameters determined for fedratinib were maximum observed plasma concentration (Cmax), time to Cmax (Tmax), AUC from time 0 to the time of the last quantifiable concentration (AUC0–t), AUC from time 0 to infinity (AUC0–∞), terminal elimination t1/2, apparent total plasma clearance (CL/F), and apparent total volume of distribution during the terminal phase (Vz/F). […]

[5] = design: method as in PMID 32248324; conditions: cited from earlier work
[6] = in vivo; cited from earlier work
myelofibrosis = test system: myelofibrosis; design: method as in PMID 34331348; conditions: double-blind Phase 3, NCT01437787; cited from earlier work
[7] = Safety and tolerability assessment (adverse event monitoring) in the Phase 1 study; assay type: in vivo, human
Procedure: Safety assessments included adverse event (AE) monitoring, review of concomitant medications and procedures, physical examinations, vital signs measurements, 12-lead ECGs, and clinical laboratory safety tests. All AEs were recorded from the time of informed consent until study completion, and up to 30 days after the last dose of fluconazole if reported to the investigator.

[8] = design: method as in PMID 32748109; conditions: healthy adult men, oral dose of [14C]-fedratinib 200 mg; cited from earlier work
CYP3A4 = test system: CYP3A4; design: method as in PMID 32886148; conditions: 0.1 μM fedratinib, different hepatocyte preparations; cited from earlier work
CYP3A4 (liver) = test system: CYP3A4 (liver); design: method as in PMID 32886148; conditions: after first dose of 400 mg once-daily fedratinib, healthy participants; cited from earlier work
[9] = design: method as in PMID 12867217; conditions: cited from earlier work
[10] = design: method as in PMID 31324935; conditions: cited from earlier work
[11] = compared with fedratinib alone, single oral dose 100 mg
[12] = fedratinib 100 mg + fluconazole 200 mg once daily (test) vs fedratinib 100 mg (reference)
[13] = healthy men, single dose fedratinib 300 mg with ketoconazole vs alone

For `Cc1cnc(Nc2ccc(OCCN3CCCC3)cc2)nc1Nc1cccc(S(=O)(=O)NC(C)(C)C)c1` [fedratinib], the “Effect of CYP3A4 inducers rifampin and efavirenz on fedratinib exposure” value [1] is given as “decrease fedratinib exposure”, the “Mean fraction of metabolism or excretion in relation to systemic clearance” value (CYP2C19 (liver)) is given as 16% and the “Effective t1/2” value [2] is given as “around 40 h”. For the same molecule, the “Terminal elimination half-life (t1/2)” value [2] was “around 114 h”, the “Effective t1/2” value ([2]; healthy participants and patients with myelofibrosis) was ~ 40 h and the “Predicted increase in fedratinib exposure on coadministration of fluconazole (dual CYP2C19 and CYP3A4 inhibitor) vs fedratinib alone” value [3] was “up to a fourfold increase”. The “Tmax median difference between fedratinib with fluconazole and fedratinib alone” value ([4]; Hodges–Lehmann estimate, 90% CI 0.00–1.00, p = 0.156) was 0.5 h, the AUC(0-inf) ([4]; both sexes, human, plasma, oral, 100 mg fedratinib + 200 mg fluconazole once daily (test), n = 5, read-out: AUC0–∞, geometric mean from ANOVA model) was 4.1 µg·h/mL and the AUC(0-inf) ([4]; both sexes, human, plasma, oral, 100 mg, 100 mg fedratinib (reference), n = 7, read-out: AUC0–∞, geometric mean from ANOVA model) was 2.41 µg·h/mL. For the same molecule, the AUC(0-t) ([4]; both sexes, human, plasma, oral, 100 mg fedratinib (reference), n = 16, read-out: AUC0–t, geometric mean from ANOVA model) was 1.9 µg·h/mL, the Cmax ([4]; both sexes, human, plasma, oral, 100 mg fedratinib (reference), n = 16, read-out: Cmax, geometric mean from ANOVA model) was 0.121 µg/mL and the Cmax ([4]; both sexes, human, plasma, oral, 100 mg fedratinib + 200 mg fluconazole once daily (test), n = 16, read-out: Cmax, geometric mean from ANOVA model) was 0.146 µg/mL. It also gave an AUC(0-inf) ([4]; both sexes, human, plasma, oral, fedratinib 100 mg + fluconazole 200 mg once daily, n = 5, read-out: AUC0–∞, geometric mean (geometric CV%)) of 4.2 µg·h/mL, a Vd/F ([4]; both sexes, human, plasma, oral, fedratinib 100 mg + fluconazole 200 mg once daily, n = 5) of 3560 L and an AUC(0-t) ([4]; both sexes, human, plasma, oral, fedratinib 100 mg + fluconazole 200 mg once daily, n = 16, read-out: AUC0–t, geometric mean (geometric CV%)) of 2.97 µg·h/mL. For the same molecule, the half-life ([4]; both sexes, human, plasma, oral, fedratinib 100 mg + fluconazole 200 mg once daily, n = 16) was 138 h, the AUC(0-inf) ([4]; both sexes, human, plasma, po, 100 mg, fedratinib 100 mg single oral dose alone, n = 7, read-out: AUC0–∞, geometric mean (geometric CV%)) was 2.36 µg·h/mL and the Cmax ([4]; both sexes, human, plasma, fedratinib 100 mg single oral dose + fluconazole 200 mg once daily, healthy adults, n = 16, read-out: Cmax, geometric mean (geometric CV%)) was 0.146 µg/mL. The Cmax ([4]; both sexes, human, plasma, fedratinib 100 mg single oral dose alone, fasted, healthy adults, n = 16, read-out: Cmax, geometric mean (geometric CV%)) was 0.121 µg/mL, the Vd/F ([4]; both sexes, human, plasma, fedratinib 100 mg single oral dose alone, n = 7) was 6500 L and the AUC(0-t) ([4]; both sexes, human, plasma, fedratinib 100 mg single oral dose alone, n = 16, read-out: AUC0–t, geometric mean (geometric CV%)) was 1.9 µg·h/mL. For the same molecule, the Tmax ([4]; both sexes, human, plasma, fedratinib 100 mg single oral dose alone, n = 16, read-out: Tmax, median (min, max)) was 2 h, the half-life ([4]; both sexes, human, plasma, fedratinib 100 mg single oral dose alone, n = 16) was 125 h and the “Increase in fedratinib AUC0–t on coadministration with fluconazole” value [4, 11] was 56%. For the same molecule, the “Increase in fedratinib Cmax on coadministration with fluconazole” value [4, 11] was 21%, the “AUC0–t: ratio (%) of geometric LS means, test/reference (90% CI)” value [4, 12] was 156% and 156 (145, 168) % and the “Cmax: ratio (%) of geometric LS means, test/reference (90% CI)” value [4, 12] was 121% and 121 (108, 135) %. For the same molecule, the “AUC0–∞: ratio (%) of geometric LS means, test/reference (90% CI)” value ([4]; fedratinib 100 mg + fluconazole 200 mg once daily (test, n = 5) vs fedratinib 100 mg (reference, n = 7)) was 170 (143, 202) %, the “CL/F, geometric mean (geometric CV%)” value ([4]; fedratinib 100 mg + fluconazole 200 mg once daily, n = 5) was 23.8 (40.2) L/h and the “Tmax, median (min, max)” value ([4]; fedratinib 100 mg + fluconazole 200 mg once daily, n = 16) was 2.00 (1.02, 6.00) h. For the same molecule, the “CL/F, geometric mean (geometric CV%)” value ([4]; fedratinib 100 mg single oral dose alone, n = 7) was 42.3 (21.9) L/h, the “Difference in terminal t1/2 of fedratinib alone vs in combination with fluconazole” value ([4]; in vivo) was “no significant difference” and the “Increase in fedratinib exposure by fluconazole (in words)” value ([4]; observed in this study) was “less than twofold increase”. For the same molecule, the “Increase in systemic exposure to fedratinib on coadministration with fluconazole” value ([4]; single oral dose, compared with fedratinib alone) was “up to 56%”, the “Effect of ketoconazole coadministration on fedratinib Tmax” value [5] was “no effect on Tmax” and the “Increase in fedratinib AUC0–t by ketoconazole” value [5, 13] was 3.20 fold. The “Increase in fedratinib Cmax by ketoconazole” value [5, 13] was 1.93 fold, the “Tolerability of single doses” value [6] was “generally well tolerated” and the “Proportion of patients reaching primary (≥ 35% reduction in spleen volume) and secondary (≥ 50% reduction in symptom score) endpoints vs placebo” value (myelofibrosis) was “greater proportion”. The “Participants with treatment-emergent adverse events (TEAEs)” value (from here on “Participants”) ([7]; during treatment with fedratinib 100 mg alone, 3 participants) was 10.3%, the “Participants” value ([7]; during treatment with fedratinib 100 mg plus fluconazole 200 mg, 1 participant) was 6.3% and the “Tolerability of single oral doses” value ([7]; fedratinib 100 mg with or without fluconazole, healthy adults) was “well tolerated”. The “Share of total circulating drug in plasma accounted for by fedratinib” value [8] was “approximately 80%”, the “CYP3A4 share of the total CYP contribution to metabolism” value (CYP3A4) was 0–67% and the “Mean fraction of metabolism or excretion in relation to systemic clearance” value (CYP3A4 (liver)) was 64%.

In the case of `OC(Cn1cncn1)(Cn1cncn1)c1ccc(F)cc1F` [fluconazole], the “Participants” value ([7]; during treatment with fluconazole 200 mg alone, 2 participants) is reported as 7.4%.

In the case of `Cc1nccn1CC1CCc2c(c3ccccc3n2C)C1=O` (stereo not drawn) [ondansetron], the “Change in AUC on coadministration with the moderate CYP3A inhibitor aprepitant” value [9] is given as “no clinically significant change”.

For `N#CC[C@H](C1CCCC1)n1cc(-c2ncnc3[nH]ccc23)cn1` [ruxolitinib], the “Increase in exposure on coadministration with fluconazole” value [10] is given as 234%.
